Results published in EP0731088B1, “Retroviral protease inhibitors” (MONSANTO COMPANY, priority 1990, dated 1992).

Experiments:
HIV protease = target: T1, HIV protease (Human immunodeficiency virus type 1 group M subtype B, UniProt P04585); test: HIV protease enzyme assay (fluorogenic substrate 2-aminobenzoyl-Ile-Nle-Phe(p-NO2)-Gln-ArgNH2); assay type: biochemical; conditions: substrate 80 µM, enzyme 12.3 nanomolar, pH 6.4, ambient temperature
T1 construct: HIV protease is diluted in the assay buffer to a final enzyme concentration of 12.3 nanomolar, based on a molecular weight of 10,780
Text: The compounds of the present invention are effective HIV protease inhibitors. Utilizing an enzyme assay as described below, the compounds set forth in the examples herein disclosed inhibited the HIV enzyme. The preferred compounds of the present invention and their calculated IC50 (inhibiting concentration 50%, i.e., the concentration at which the inhibitor compound reduces enzyme activity by 50%) values are shown in Table 18. The enzyme method is described below. The substrate is 2-aminobenzoyl-Ile-Nle-Phe(p-NO2)-Gln-ArgNH2. The positive control is MVT-101 (Miller, M. et al, Science, 246, 1149 (1989)] The assay conditions are as follows: Assay buffer: • 20 mM sodium phosphate, pH 6.4 • 20% glycerol • 1 mM EDTA • 1 mM DTT • 0.1% CHAPS
The above described substrate is dissolved in DMSO, then diluted 10 fold in assay buffer. Final substrate concentration in the assay is 80 µM.
HIV protease is diluted in the assay buffer to a final enzyme concentration of 12.3 nanomolar, based on a molecular weight of 10,780.
The final concentration of DMSO is 14% and the final concentration of glycerol is 18%. […] The increase in fluorescence is monitored at 4 time points (0, 8, 16 and 24 minutes) at ambient temperature. […]

HIV-1 = test: CEM cell assay: HIV inhibition in acutely infected cells, tetrazolium (MTT) based colorimetric assay; conditions: Table 19; test concentration not given; CEM cells infected with HIV-1, 7 days
Protocol: The effectiveness of the compounds listed in Table 19 were determined in the above-described enzyme assay and in a CEM cell assay.
Methods 20, 309-321 (1988).

With `CC(C)CCN(C[C@@H](O)[C@H](Cc1ccccc1)NC(=O)[C@H](CC(N)=O)NC(=O)c1ccc2ccccc2n1)C(=O)CC(C)(C)C` (relative stereo) [Compound 1, Butanediamide, N^1-[3-[[[(2,2-dimethyl)propyl]carbonyl](3-methylbutyl)amino]-2-hydroxy-1-(phenylmethyl)propyl]-2-[(2-quinolinylcarbonyl)amino]-, [1S-[1R*(2R*),2S*]]] the IC50 (HIV protease) was 21 nM and the Inhibition (HIV-1) was 100%.

With `CCCCC(=O)N(CC1CCCCC1)C[C@@H](O)[C@H](Cc1ccccc1)NC(=O)[C@H](CC(N)=O)NC(=O)OCc1ccccc1` (relative stereo) [Compound 2, Butanediamide, N^1-[3-[[butylcarbonyl](cyclohexylmethyl)amino]-2-hydroxy-1-(phenylmethyl)propyl]-2-[(phenylmethyloxy)carbonyl)amino]-, [1S-[1R*(2R*),2S*]]] the IC50 (HIV protease) was 696 nM.
